Measured values: article PMC9295256 (Journal of medicinal chemistry, 2021)
“Also recorded” adds a separate entry of the source. Read-outs that look alike come from different tables or passages of the source.

Columns and labels:
[1] = assay type: in vitro ADME, mouse; conditions: CD-1, mouse
recombinant rat Nln = recombinant rat Nln (Rattus norvegicus, UniProt P42676); assay: Nln activation, continuous quenched fluorescence substrate; assay type: biochemical
[2] = 100% = normal enzyme turnover, mean of n = 4, 95% CI in parentheses

Chain of recombinant rat Nln (P42676 38-704): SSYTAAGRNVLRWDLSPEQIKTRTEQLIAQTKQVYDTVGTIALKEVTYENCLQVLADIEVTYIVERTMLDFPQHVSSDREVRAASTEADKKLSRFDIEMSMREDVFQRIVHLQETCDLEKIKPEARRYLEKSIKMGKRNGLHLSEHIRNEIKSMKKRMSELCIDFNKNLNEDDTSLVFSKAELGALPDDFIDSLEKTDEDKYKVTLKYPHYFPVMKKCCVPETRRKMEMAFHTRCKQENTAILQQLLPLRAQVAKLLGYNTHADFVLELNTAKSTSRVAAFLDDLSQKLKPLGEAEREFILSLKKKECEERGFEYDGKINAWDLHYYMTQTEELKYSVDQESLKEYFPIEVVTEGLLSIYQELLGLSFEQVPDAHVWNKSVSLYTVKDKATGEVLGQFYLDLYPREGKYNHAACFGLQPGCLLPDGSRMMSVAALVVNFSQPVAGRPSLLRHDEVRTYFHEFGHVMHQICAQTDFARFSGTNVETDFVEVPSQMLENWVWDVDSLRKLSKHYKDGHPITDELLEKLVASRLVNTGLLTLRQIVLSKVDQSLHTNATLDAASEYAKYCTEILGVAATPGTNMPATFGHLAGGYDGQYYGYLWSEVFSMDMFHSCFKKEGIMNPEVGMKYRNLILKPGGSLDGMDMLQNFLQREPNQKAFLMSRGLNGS

Work on `N[C@@H](Cc1c[nH]cn1)C(=O)N[C@@H](Cc1c[nH]c2ccccc12)C(=O)O` [Compound 4, His–Trp] yielded a Papp A→B at 120 min, 10 μg/mL [1] of 5.33 ×10⁻⁶ cm/s.

With `N[C@H](Cc1c[nH]cn1)C(=O)NCCc1c[nH]c2ccccc12` [Compound 9e, (R)-N-(2-(1H-Indol-3-yl)ethyl)-2-amino-3-(1H-imidazol-4-yl)-propanamide] the “Amax, maximum % activation achieved (95% CI)” value (“Amax … (95% CI)” below) (recombinant rat Nln; [2]) was 132 (122.5 to 143.6) % and the “Amax … (95% CI)” value (recombinant rat Nln; 100% = normal enzyme turnover, mean of n = 4, 95% CI in parentheses, listed as D-9e) was 132%.

For `N[C@@H](Cc1c[nH]cn1)C(=O)NCCc1ccc2ccccc2c1` [Compound 9f, (S)-2-Amino-3-(1H-imidazol-4-yl)-N-(2-(naphthalen-2-yl)ethyl)-propanamide], the “Amax … (95% CI)” value (recombinant rat Nln) was 323.7 (310.3 to 337.9) %.

In the case of `N[C@H](Cc1c[nH]cn1)C(=O)NCCc1ccc2ccccc2c1` [Compound 9g, (R)-2-Amino-3-(1H-imidazol-4-yl)-N-(2-(naphthalen-2-yl)ethyl)-propanamide], the “Amax … (95% CI)” value (recombinant rat Nln) is reported as 339.8 (325.4 to 355.4) %.

With `N[C@@H](Cc1c[nH]cn1)C(=O)NCc1ccc2ccccc2c1` [Compound 10a, (S)-2-Amino-3-(1H-imidazol-4-yl)-N-(naphthalen-2-ylmethyl)-propanamide] the “Amax … (95% CI)” value (recombinant rat Nln; [2]) was 210.9 (191.7 to 231.9) %.

For `N[C@H](Cc1c[nH]cn1)C(=O)NCc1ccc2ccccc2c1` [Compound 10b, (R)-2-Amino-3-(1H-imidazol-4-yl)-N-(naphthalen-2-ylmethyl)-propanamide], the “Amax … (95% CI)” value (recombinant rat Nln; [2]) was 197.5 (184.9 to 214.8) %.

In the case of `N[C@H](Cc1c[nH]cn1)C(=O)NCc1cccc2ccccc12` [Compound 10d, (R)-2-Amino-3-(1H-imidazol-4-yl)-N-(naphthalen-1-ylmethyl)-propanamide], the “Amax … (95% CI)” value (recombinant rat Nln; [2]) is reported as 343 (325.2 to 363.5) %.

For `N[C@H](Cc1c[nH]cn1)C(=O)Nc1cccc2cccnc12` [Compound 11b, (R)-2-Amino-3-(1H-imidazol-4-yl)-N-(quinolin-8-yl)propanamide], the “Amax … (95% CI)” value (recombinant rat Nln; [2]) was 288.3 (274.3 to 303.3) % and the “mean Amax of the two enantiomers” value (recombinant rat Nln; mean over L and D enantiomer) was 285%.

For “(S)-tert-Butyl(1-((2-(1H-indol-3-yl)ethyl)amino)-3-(1H-imidazol-4-yl)-1-oxopropan-2-yl)carbamate [Compound 9b]”, the “Nln activation, result in words” value (recombinant rat Nln) was “ameliorates activity”, the “Amax … (95% CI)” value (recombinant rat Nln; [2]) was “Inactive” and the “A50, half maximal activation concentration (95% CI)” value (recombinant rat Nln; recombinant rat Nln, QFS […] μM, 37 °C, mean of n = 4, 95% CI in parentheses) was “Inactive”.

With “N-(2-(1H-Indol-3-yl)ethyl)-3-(1H-imidazol-4-yl)propanamide [Compound 9c]” the “A50, half maximal activation concentration (95% CI)” value (recombinant rat Nln) was “Inactive”, the “Amax … (95% CI)” value (recombinant rat Nln) was “Inactive” and the “Nln activation, result in words” value (recombinant rat Nln) was “complete amelioration of activity; also recorded: ameliorates activity”.
